Here are results for four molecules from paper PMC9201908, “Expansion of the Strigolactone Profluorescent Probes Repertory: The Right Probe for the Right Application” (Frontiers in Plant Science, 2022).

One assay addresses T1, AtD14 (Arabidopsis thaliana, UniProt Q9SQR3).
T1 construct: GST; made in house
T1 sequence (Q9SQR3 1-267): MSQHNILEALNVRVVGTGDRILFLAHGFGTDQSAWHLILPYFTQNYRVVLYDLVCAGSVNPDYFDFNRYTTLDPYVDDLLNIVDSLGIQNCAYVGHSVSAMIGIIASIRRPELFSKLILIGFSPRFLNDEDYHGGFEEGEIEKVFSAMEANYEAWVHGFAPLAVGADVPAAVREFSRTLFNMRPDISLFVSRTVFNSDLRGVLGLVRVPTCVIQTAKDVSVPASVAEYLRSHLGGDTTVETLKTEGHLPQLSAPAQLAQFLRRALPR
Put plainly: Enzymatic assay with profluorescent probes, AtD14. The format is biochemical. The conditions noted are these: protein 0.33 μM, probe 10 μM. On the procedure: (§1) The enzyme activity was determined by measuring the release of the fluorescent intensities of each fluorophores resulting from the cleavage of profluorescent probes by RMS3, AtD14, OsD14, and DAD2 proteins in a SPARK M10 in a 96-well format (de Saint Germain et al., [2021a]). In the assay, using an Integra Viaflo 96 robot, 50 μL of a solution of protein at 0.33 μM in same buffer was added simultaneously in all 96 wells to 50 μL of profluorescent substrate solution (at varying concentrations, prepared from a 10 mM stock solution in 100% of DMSO) in PBS (100 mM of phosphate, pH 6.8, 150 mM of NaCl). After a lag time of 15 s, the formation of fluorophores was recorded over 3 h at 15 s intervals at 25°C. […] All experiments were repeated with three technical replicates. The fluorescence of each fluorophore was also determined for each measurement at the same time frame but in the absence of enzyme in order to determine the standard curves. For rapid enzymatic assays (Figure 8A, small panel), the solution of protein was added by the injector of the plate reader and then, the well was immediately read over 5 min with 1 s intervals. Same parameters were used to determine the fluorophore concentration.

Assay [1] concerns rms1-10 pea mutant plants. Put plainly: Pea shoot-branching assay by direct application on the bud, rms1-10. The class given is in vivo, Pisum sativum. The conditions noted are these: for Bioactivity on shoot branching inhibition (bud development): rms1-10, direct application, result in words; for Length of bud at node 3 /branch: direct application, rms1-10, 10 days after treatment, mean per replicate. Here is the method:
(§2) Pea (Pisum sativum) branching mutant plants used in this study were described previously (Rameau et al., [1997]). The SL biosynthesis rms1-10 (M3T-884) and SL response rms3-4 (M2T-30) mutants were obtained from the dwarf cv. Térèse. Plants were grown in a greenhouse under long days as described by Braun et al. ([2012]).
(§3) The compounds to be tested were applied directly to the axillary bud with a micropipette as 10 μL of a solution containing 0.1% of acetone with 2% of polyethylene glycol 1,450, 50% of ethanol, and 0.4% of DMSO. The control 0 is the treatment with 0.1% of DMSO without compound. A total of 24 plants were sown per treatment in trays (2 repetitions of 12 plants). The treatment was done 8 days after sowing, on the axillary bud at node 3. The branches at nodes 1–2 were removed to encourage the outgrowth of axillary buds at nodes above. Nodes were numbered acropetally from the first scale leaf as node 1 and cotyledonary node as node 0. Bud growth at node 3 was measured 10 days after treatment. Plants with damaged main shoot apex or showing a dead white treated bud were discarded from the analysis. The SL-deficient rms1-10 pea mutant was used for all experiments and WT Térèse as control. SL-perceived rms3-4 pea mutant was used to test that when bioactive, the analog acts via RMS3, and it was also used to check the putative toxicity of probes.

Another assay addresses T2, DAD2 (Petunia hybrida, UniProt J9U5U9).
T2 construct: GST (N); made in house
T2 sequence (J9U5U9 1-267): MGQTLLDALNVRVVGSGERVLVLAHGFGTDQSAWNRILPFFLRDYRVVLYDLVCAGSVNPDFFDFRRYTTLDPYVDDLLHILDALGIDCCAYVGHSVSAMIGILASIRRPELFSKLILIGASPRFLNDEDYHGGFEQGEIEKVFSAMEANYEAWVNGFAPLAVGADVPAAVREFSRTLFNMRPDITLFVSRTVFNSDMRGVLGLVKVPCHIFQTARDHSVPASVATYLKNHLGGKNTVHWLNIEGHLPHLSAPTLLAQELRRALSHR
Put plainly: Enzymatic assay with profluorescent probes, DAD2. The format is biochemical. The conditions noted are these: protein 0.33 μM, probe 10 μM. Here is the method:
as §1

A further assay addresses T3, OsD14 (Oryza sativa subsp. japonica, UniProt Q10QA5).
T3 construct: GST (N); made in house
T3 sequence (Q10QA5 with tags, fused parts or gaps): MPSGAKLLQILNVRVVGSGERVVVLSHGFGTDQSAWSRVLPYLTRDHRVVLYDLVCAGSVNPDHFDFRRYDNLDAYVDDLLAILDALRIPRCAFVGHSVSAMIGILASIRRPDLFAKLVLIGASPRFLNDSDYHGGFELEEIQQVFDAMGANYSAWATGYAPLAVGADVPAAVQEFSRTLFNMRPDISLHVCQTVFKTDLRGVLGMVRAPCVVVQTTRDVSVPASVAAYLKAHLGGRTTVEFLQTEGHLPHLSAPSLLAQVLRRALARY
Put plainly: Enzymatic assay with profluorescent probes, OsD14. The class given is biochemical, Ozyza sativa. The note with it: protein 0.33 μM, probe 10 μM. Here is the method: as §1

The target in another assay is T4, RMS3 protein (Pisum sativum, UniProt A0A109QYD3).
T4 construct: GST; made in house
T4 sequence (A0A109QYD3 1-267): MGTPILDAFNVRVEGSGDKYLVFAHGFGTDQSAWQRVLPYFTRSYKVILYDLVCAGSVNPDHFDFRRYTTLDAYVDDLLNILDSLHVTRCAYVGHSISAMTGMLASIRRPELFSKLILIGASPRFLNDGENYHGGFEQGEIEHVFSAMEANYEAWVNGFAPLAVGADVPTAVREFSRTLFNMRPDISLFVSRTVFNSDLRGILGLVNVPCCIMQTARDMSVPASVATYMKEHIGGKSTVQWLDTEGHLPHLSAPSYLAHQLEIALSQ
Put plainly: Enzymatic assay with profluorescent probes, RMS3. The format is biochemical. The conditions noted are these: probe 10 μM; for Cleavage kinetics by RMS3: RMS3 400 nM, 25°C, result in words; for Cleavage of probe by RMS3: protein 0.33 μM.

Assay [2] deals with rms1-10 pea mutant plants. The conditions noted are these: direct application, rms1-10, tested previously, ref De saint Germain et al 2016, cited from earlier work.
Assay [3] deals with Arabidopsis SL-deficient mutant max3-11. Put plainly: Hydroponic assay on Arabidopsis, rosette branches. The format is in vivo, Arabidopsis thaliana. The conditions noted are these: max3-11, hydroponic, 0.5 and 3 μM. On the procedure: The hydroponic assay was adapted from the study by Cornet et al. ([2021]). Seeds were surface-sterilized for 8 min in a solution of ethanol (95%) and hypochlorite solution (10%; Bayrol, Mundolsheim, France) and were rinsed two times with ethanol (100%). Each seed was sown on top of a cut 0.5 ml Eppendorf tube filled with agar medium containing 0.65% of agar and 10% of nutritive solution of 5 mM NO3. Tubes were soaked in water and stored in the dark at 4°C for 2 days. Twelve plants per pipette tip box (13 × 9 × 7 cm) were grown and supplied with nutrient solution as in the study by Boyer et al. ([2014]) at a concentration of 5 ml/L (750 ml of solution per box). Every week, the nutrient solution was renewed and every 10 days one time, a fresh batch of treatment was added to the solution. The first treatment occurred at day 27 after sowing when plants started to bolt. The number of rosette branches was counted at day 42.

The test system of assay [4] is rms1-10 pea mutant plants. Put plainly: Pea shoot-branching assay by vascular supply, rms1-10. The format is in vivo, Pisum sativum. The note with it: rms1-10, 3,000 nM. On the procedure: as §2
The compounds to be tested were applied by vascular supply (Muñoz et al., [2021]). The control was the treatment with 0.1% of DMSO in water. A total of 12 plants were sown per treatment in trays and were treated with probes under node 3 bud generally 10 days after sowing. Compounds in DMSO solution were diluted with water to 3,000 nM for a treatment with 0.1% (v/v) DMSO. The branches at nodes 1 and 2 were removed to encourage the outgrowth of axillary buds at the nodes above. Nodes were numbered acropetally from the first scale leaf as node 1 and cotyledonary node as node 0. Bud growth at nodes 3 and 4 was measured with digital calipers 8–10 days after treatment. Plants with damaged main shoot apex or with a dead white treated-bud were discarded from the analysis. The SL-deficient rms1-10 pea mutant was used for all experiments.

Assay [5] deals with Ppccd8 mutant plants. Put plainly: Physcomitrium patens bioassay, number of filaments in the dark. The class given is in vivo. The note with it: 1 μM. On the procedure:
Assays on Physcomitrium patens were performed on plants grown in 24-well plates, starting from very small pieces of moss tissues as described by Guillory and Bonhomme ([2021]). As for pea rms1, the Ppccd8 SL synthesis mutant was used for assays, since the effect of the compounds was better seen in this mutant vs. wild type (WT; Lopez-Obando et al., [2021]). For each treatment, 24 plants were grown in PpNO3 medium [minimal medium described by Ashton et al., [1979]], dispatched in three different plates. Plants were grown for 2 weeks under control conditions, then treated with fluorophores or probes (all compounds used at 1 μM), before being placed vertically in the dark for 10 days. A single picture of each well was taken under an Axio Zoom microscope (Zeiss) with a dedicated program. Filaments were counted using ImageJ software (http://imagej.nih.gov/ij/) as described by Guillory and Bonhomme ([2021]). Twenty-four plants were tested in each treatment.

The next assay has as its system rms3-4 pea mutant plants. The assay can be described thus: Pea shoot-branching assay by direct application on the bud, rms3-4. The format is in vivo, Pisum sativum. The note with it: rms3-4, 10 days after treatment. On the procedure: as §2, §3
For assay [6], the system named is Arabidopsis SL-deficient mutant max3-11. The note with it: ref de Saint Germain et al., 2016; cited from earlier work.
In assay [7] the test system is Ppccd8 mutant plants. The note with it: WT and Ppccd8; ref Hoffmann et al., 2014; Lopez-Obando et al., 2021; cited from earlier work.
A further assay relates to ShD14. On the set-up: method as in Xu et al., 2018. The note with it: ref Xu et al., 2018; cited from earlier work.

Molecules are shown by their SMILES. Entries after “also recorded” stand apart in the source; their conditions may differ. Where two headings read alike, the source gives them in different places.

Turning to `CC1=CC(Oc2c(F)cc3c(C)cc(=O)oc3c2F)OC1=O` (racemic) [(±)-GC240], the “Cleavage of probe by AtD14” value at AtD14 is on record as “able to cleave”. Also, the “Bioactivity on shoot branching inhibition (bud development)” value in [1] was “inhibition of bud development; also recorded: less efficient than (±)-GR24”. Further, the “Cleavage of probe by DAD2” value on DAD2 is reported as “able to cleave”. Besides, on OsD14, the “Affinity of the rice SL receptor suggested by cleavage profile” value is reported as “lower affinity” and the “Cleavage of probe by OsD14” value is reported as “able to cleave”. On RMS3 protein, the “Cleavage kinetics by RMS3” value is reported as “Two-phase cleavage kinetics; also recorded: blocked at very low concentration” and the “Cleavage of probe by RMS3” value was “able to cleave”. For the same molecule, the “Length of bud at node 3 /branch” value in assay [2] (1,000 nM) is listed as 2.52 mm. Also, the “Length of bud at node 3 /branch” value in assay [2] (5,000 nM) is on record as 2.61 mm.
With `CC1=CC(Oc2ccc3nc4ccc(=O)cc-4oc3c2)OC1=O` (racemic) [(±)-GC93, 7-[(4-Methyl-5-Oxo-2,5-Dihydrofuran-2-yl)Oxy]-3H-Phenoxazin-3-One], the “Length of bud at node 3 /branch” value in assay [1] (10 nM) is recorded as 17.73 mm; in [1] (10,000 nM), 3.89 mm. For the same molecule, the “Bioactivity on shoot branching inhibition (bud development)” value in assay [1] was “inhibitory effect with statistical significance only at 10 μM”. Further, the “Bioactivity on number of rosette branches” value in assay [3] is “not bioactive”. Besides, the “Bioactivity by vascular supply compared to the coumarin derivatives series” value in assay [4] was “lower bioactivity”. Moreover, the “Activity on filament number” value with Ppccd8 mutant plants [5] was “strongest activity”.
Turning to `CC1=C(C)C(Oc2c(F)cc3c(C)cc(=O)oc3c2F)OC1=O` (racemic) [(±)-GC242], the entries for the “Length of bud at node 3 /branch” value (with rms3-4 pea mutant plants (1,000 nM); in the assay on rms3-4 pea mutant plants (5,000 nM); in [1] (10,000 nM)) were 35.80, 33.76 and 1.77 mm, respectively. Also, the “Cleavage of probe by AtD14” value on AtD14 is “able to cleave”. The “Bioactivity on shoot branching inhibition (bud development)” value in assay [1] was “among the most bioactive molecules”. Further, in assay [6], the “Bioactivity in Arabidopsis” value is reported as “previously found bioactive”. Besides, the “Cleavage of probe by DAD2” value at DAD2 was “able to cleave”. Moreover, the “Cleavage of probe by OsD14” value on OsD14 is recorded as “able to cleave”. In addition, the “Cleavage kinetics by RMS3” value at RMS3 protein is “Two-phase cleavage kinetics; also recorded: blocked at very low concentration; also recorded: two-phase kinetic”. Besides, the “Cleavage of probe by RMS3” value at RMS3 protein is “able to cleave”. Moreover, the “Activity on filament number” value in the assay with Ppccd8 mutant plants [5] was “confirmed the previous activity”. For the same molecule, in the assay with Ppccd8 mutant plants [7], the “Effect on filament number” value is recorded as “dose-dependent decrease in the filament number”.
On to `CCOC(=O)c1ccccc1-c1c2ccc(=O)cc-2oc2cc(OC3C=C(C)C(=O)O3)ccc12` (racemic) [(±)-YLG, reference compound], for which the “Length of bud at node 3 /branch” value in [1] (10 nM) came to 24.15 mm. In addition, the “Bioactivity on shoot branching inhibition (bud development)” value in assay [1] was “inhibition of bud development; also recorded: less efficient than (±)-GR24”. The “Cleavage of probe by OsD14” value at OsD14 is given as “unable to cleave”. Further, the “Cleavage by ShD14” value in the assay with ShD14 is recorded as “not able to cleave”. Besides, the “Bioactivity on number of rosette branches” value in assay [3] was “not bioactive”. Also, the “Bioactivity by vascular supply compared to the coumarin derivatives series” value in assay [4] is on record as “lower bioactivity”. Besides, in the assay with Ppccd8 mutant plants [5], the “Activity on filament number” value is recorded as “less active”. Further, the “Activity on filament number, one bioassay replication” value with Ppccd8 mutant plants [5] (Supplementary Figure 3) was “no significant bioactivity”.
